According to the C3SDB collision cross section collection:
Where “and” joins values, the source holds several entries; their conditions need not be identical. Equal values may be shown once.

Conditions: instrument: DT, stepped-field

NC(=O)NCCC(=O)O [3-Ureidopropionic Acid]
collision cross section (N2) ([M+Na]+): 135.8 Å²

Cc1ncc(CO)c(C(=O)O)c1O [4-Pyridoxate]
collision cross section (N2) ([M+H]+): 137.27 Å² | collision cross section (N2) ([M+Na]+): 151.78 Å²

CSC[C@H]1O[C@@H](n2cnc3c(N)ncnc32)[C@H](O)[C@@H]1O [5'-Methylthioadenosine]
collision cross section (N2) ([M+H]+): 173.03 Å² | collision cross section (N2) ([M+Na]+): 176.54 Å²

CCCCC/C=C\C/C=C\C/C=C\C=C\[C@@H](O)CCCC(=O)O [5S-HETE]
collision cross section (N2) ([M+Na]+): 188.21 Å²

Cn1cnc2[nH]c(N)nc(=O)c21 [7-Methylguanine]
collision cross section (N2) ([M+H]+): 134.33 Å² | collision cross section (N2) ([M+Na]+): 149.72 Å²

CCCCC/C=C\C[C@@H](O)/C=C/C=C\C/C=C\CCCC(=O)O [12R-HETE]
collision cross section (N2) ([M+Na]+): 194.4 Å²

CCCCCC(O)/C=C/C=C\CCCCCCCC(=O)O (stereo not given) [13-HODE]
collision cross section (N2) ([M+Na]+): 191.83 Å²

CCCCCCCC/C=C\CCCCCCCC(=O)OC[C@@H](O)COP(=O)([O-])OCC[N+](C)(C)C [18:1 Lyso PC]
collision cross section (N2) ([M+Na]+): 239.53 Å²

CC1=CC(=O)CC(C)(C)C1(O)/C=C/C(C)=C\C(=O)O (stereo not given) [Abscisic Acid]
collision cross section (N2) ([M+H]+): 160.56 Å² | collision cross section (N2) ([M+Na]+): 176.18 Å²

CC(=O)OP(=O)(O)O [Acetyl Phosphate]
collision cross section (N2) ([M+Na]+): 125.44 Å²

CC(=O)SCCNC(=O)CCNC(=O)[C@H](O)C(C)(C)COP(=O)(O)OP(=O)(O)OC[C@H]1O[C@@H](n2cnc3c(N)ncnc32)[C@H](O)[C@@H]1OP(=O)(O)O [Acetyl coenzyme A]
collision cross section (N2) ([M+H]+): 249.8 Å² | collision cross section (N2) ([M+Na]+): 263.07 Å²

Nc1ncnc2c1ncn2[C@@H]1O[C@H](COP(=O)(O)O)[C@@H](O)[C@H]1O [Adenosine 5' Monophosphate]
collision cross section (N2) ([M+H]+): 173.33 Å² | collision cross section (N2) ([M+Na]+): 180.73 Å²

O=c1cc(-c2ccc(O)c(-c3c(O)cc(O)c4c(=O)cc(-c5ccc(O)cc5)oc34)c2)oc2cc(O)cc(O)c12 [Amentoflavone]
collision cross section (N2) ([M+H]+): 230.16 Å²

Nc1ccccc1S(=O)(=O)O [Aniline-2-sulfonic Acid]
collision cross section (N2) ([M+Na]+): 153.23 Å²

C[C@]12CC[C@@H](O)C[C@H]1CC[C@@H]1[C@@H]2[C@@H](O)C[C@@]2(C)[C@H]1CC[C@]2(O)[C@H](O)CO [B-Cortol]
collision cross section (N2) ([M+Na]+): 204.59 Å²

O=C1c2ccccc2-c2cccc3cccc1c23 [Benzanthrone]
collision cross section (N2) ([M+H]+): 145.71 Å²

c1ccc2cc3c(cc2c1)-c1cccc2cccc-3c12 [Benzo(k)fluoranthene]
collision cross section (N2) ([M+H]+): 154.36 Å²

NCCCNCCCN [Bis(3-aminopropyl)amine]
collision cross section (N2) ([M+H]+): 128.52 Å²

Oc1cc(O)c2c(c1)O[C@H](c1ccc(O)c(O)c1)[C@@H](O)C2 [Catechin]
collision cross section (N2) ([M+H]+): 165.18 Å² | collision cross section (N2) ([M+Na]+): 184.42 Å²

OC[C@H]1O[C@@H](O[C@H]2[C@H](O)[C@@H](O)[C@H](O[C@H]3[C@H](O)[C@@H](O)C(O)O[C@@H]3CO)O[C@@H]2CO)[C@H](O)[C@@H](O)[C@@H]1O (stereo not given in full) [Cellotriose]
collision cross section (N2) ([M+Na]+): 215.69 Å²

C[C@]12CCC(=O)C=C1CC[C@@H]1[C@@H]2[C@@H](O)C[C@@]2(C)[C@H]1CC[C@]2(O)C(=O)CO [Cortisol]
collision cross section (N2) ([M+H]+): 188.88 Å² | collision cross section (N2) ([M+Na]+): 213.91 Å²

N[C@H]1C(O)O[C@H](CO)[C@@H](O)[C@@H]1O (stereo partly drawn) [D-Glucosamine]
collision cross section (N2) ([M+H]+): 135.59 Å² | collision cross section (N2) ([M+Na]+): 147.19 Å²

CC(C)(CO)[C@@H](O)C(=O)NCCC(=O)O [D-Pantothenic Acid]
collision cross section (N2) ([M+H]+): 150.17 Å² | collision cross section (N2) ([M+Na]+): 155.27 Å²

O=c1c(-c2ccc(O)cc2)coc2cc(O)ccc12 [Daidzein]
collision cross section (N2) ([M+H]+): 157.23 Å² | collision cross section (N2) ([M+Na]+): 173.13 Å²

C[N+](C)(C)CCCC(=O)[O-] [Deoxycarnitine]
collision cross section (N2) ([M+H]+): 130.4 Å²

O=c1ccn([C@H]2C[C@H](O)[C@@H](CO)O2)c(=O)[nH]1 [Deoxyuridine]
collision cross section (N2) ([M+Na]+): 159.45 Å²

COc1c(Cl)ccc(Cl)c1C(=O)O [Dicamba]
collision cross section (N2) ([M+Na]+): 157.21 Å²

OCCNCCO [Diethanolamine]
collision cross section (N2) ([M+H]+): 123.33 Å²

O=C(CO)COP(=O)(O)O [Dihydroxyacetone Phosphate]
collision cross section (N2) ([M+Na]+): 144.07 Å²

CC/C=C\C/C=C\C/C=C\C/C=C\C/C=C\C/C=C\CCC(=O)O [Docosahexaenoic Acid]
collision cross section (N2) ([M+H]+): 184.62 Å² | collision cross section (N2) ([M+Na]+): 185.06 Å²

COc1ccc(-c2coc3cc(O)ccc3c2=O)cc1 [Formononetin]
collision cross section (N2) ([M+Na]+): 176.14 Å²

O=C(CO)[C@@H](O)[C@H](O)[C@H](O)COP(=O)(O)O [Fructose-6-phosphate]
collision cross section (N2) ([M+Na]+): 156.44 Å²

O=C(O)/C=C/C(=O)O [Fumaric Acid]
collision cross section (N2) ([M+Na]+): 133.58 Å²

COC(=O)c1c(Cl)nn(C)c1S(=O)(=O)NC(=O)Nc1nc(OC)cc(OC)n1 [Halosulfuron-methyl]
collision cross section (N2) ([M+H]+): 196.48 Å² | collision cross section (N2) ([M+Na]+): 201.41 Å²

COc1ccc([C@@H]2CC(=O)c3c(O)cc(O)cc3O2)cc1O [Hesperetin]
collision cross section (N2) ([M+H]+): 176.54 Å² | collision cross section (N2) ([M+Na]+): 184.45 Å²

O=C(O)CNC(=O)c1ccccc1 [Hippuric Acid]
collision cross section (N2) ([M+H]+): 146.82 Å² | collision cross section (N2) ([M+Na]+): 154.06 Å²

COc1cc(CC(=O)O)ccc1O [Homovanillic Acid]
collision cross section (N2) ([M+Na]+): 149.57 Å²

CCCCC/C=C\C/C=C\CCCCCCCCCC(=O)O [Icosadienoic Acid]
collision cross section (N2) ([M+Na]+): 184.05 Å²

O=C(O)Cc1cnc[nH]1 [Imidazole-4-acetic Acid]
collision cross section (N2) ([M+H]+): 128.23 Å² | collision cross section (N2) ([M+Na]+): 148.03 Å²

Cc1ccc2c(c1)[C@H](Nc1nc(N)nc(C(C)F)n1)[C@@H](C)C2 (stereo not given in full) [Indaziflam]
collision cross section (N2) ([M+H]+): 169.27 Å² | collision cross section (N2) ([M+Na]+): 174.6 Å²

O=C(O)Cc1c[nH]c2ccccc12 [Indoleacetic Acid]
collision cross section (N2) ([M+H]+): 138.11 Å²

COc1ccc2c(c1)c(CC(=O)O)c(C)n2C(=O)c1ccc(Cl)cc1 [Indomethacin]
collision cross section (N2) ([M+H]+): 183.55 Å² | collision cross section (N2) ([M+Na]+): 195.98 Å²

OC[C@H]1O[C@H](OC[C@H]2O[C@H](OC[C@H]3OC(O)[C@H](O)[C@@H](O)[C@@H]3O)[C@H](O)[C@@H](O)[C@@H]2O)[C@H](O)[C@@H](O)[C@@H]1O (stereo not given in full) [Isomaltotriose]
collision cross section (N2) ([M+Na]+): 210.83 Å²

O=C(O)c1cc(=O)c2ccccc2[nH]1 [Kynurenic Acid]
collision cross section (N2) ([M+H]+): 140.99 Å² | collision cross section (N2) ([M+Na]+): 154.12 Å²

Nc1ccccc1C(=O)CC(N)C(=O)O (stereo not given) [Kynurenine]
collision cross section (N2) ([M+H]+): 151.07 Å²

OC1OC[C@H](O)[C@H](O)[C@H]1O (stereo partly drawn) [L-Arabinose]
collision cross section (N2) ([M+Na]+): 141.86 Å²

O=C1O[C@H]([C@@H](O)CO)C(O)=C1O [L-Ascorbic Acid]
collision cross section (N2) ([M+Na]+): 146.11 Å²

NCCC[C@H](N)C(=O)O [L-Ornithine]
collision cross section (N2) ([M+H]+): 129.79 Å²

C[C@@H]1OC(O)[C@H](O)[C@H](O)[C@H]1O (stereo partly drawn) [L-Rhamnose]
collision cross section (N2) ([M+Na]+): 146.3 Å²

O=C(O)[C@@H](O)[C@@H](O)[C@@H](O)CO [L-Ribonic Acid]
collision cross section (N2) ([M+Na]+): 143.47 Å²

C[Se]CC[C@H](N)C(=O)O [L-Selenomethionine]
collision cross section (N2) ([M+H]+): 137.67 Å²

N[C@@H](Cc1c[nH]c2ccccc12)C(=O)O [L-Tryptophan]
collision cross section (N2) ([M+H]+): 154.22 Å²

CC(C)[C@H](N)C(=O)O [L-Valine]
collision cross section (N2) ([M+H]+): 134.28 Å² | collision cross section (N2) ([M+Na]+): 144.07 Å²

CCCCCCCC/C=C\CCCCCCCC(=O)OC[C@@H](O)COP(=O)([O-])OCC[N+](C)(C)C [LPC 18:1]
collision cross section (N2) ([M+Na]+): 237.34 Å²

CCCCCCCCCCCCCCCC/C=C\OC[C@@H](O)COP(=O)([O-])OCC[N+](C)(C)C [LPC(p18:0)]
collision cross section (N2) ([M+H]+): 236.8 Å² | collision cross section (N2) ([M+Na]+): 238.37 Å²

OC[C@H]1O[C@@H](O[C@@H]2[C@@H](CO)O[C@](O)(CO)[C@H]2O)[C@H](O)[C@@H](O)[C@H]1O [Lactulose]
collision cross section (N2) ([M+Na]+): 180.1 Å²

COc1cc(-c2[o+]c3cc(O)cc(O)c3cc2O)cc(OC)c1O [Malvidin]
collision cross section (N2) ([M]+): 178.55 Å²

O=c1c2cc(O)c(O)cc2oc2cc(O)c([C@@H]3O[C@H](CO)[C@@H](O)[C@H](O)[C@H]3O)c(O)c12 [Mangiferin]
collision cross section (N2) ([M+H]+): 196.62 Å²

C=CCc1ccc(OC)c(OC)c1 [Methyleugenol]
collision cross section (N2) ([M+H]+): 138.94 Å² | collision cross section (N2) ([M+Na]+): 160.36 Å²

CC(=O)N[C@H](Cc1c[nH]c2ccccc12)C(=O)O [N-Acetyl-D-tryptophan]
collision cross section (N2) ([M+H]+): 155.67 Å² | collision cross section (N2) ([M+Na]+): 162.74 Å²

CC(=O)N[C@@H](CC(=O)O)C(=O)O [N-Acetyl-L-aspartic Acid]
collision cross section (N2) ([M+Na]+): 143.7 Å²

CSCC[C@H](NC=O)C(=O)O [N-Formyl-L-methionine]
collision cross section (N2) ([M+Na]+): 149.53 Å²

COc1ccc2cc([C@H](C)C(=O)O)ccc2c1 [Naproxen]
collision cross section (N2) ([M+H]+): 154.83 Å² | collision cross section (N2) ([M+Na]+): 163.87 Å²

NC(=O)c1ccc[n+]([C@@H]2O[C@H](COP(=O)([O-])O)[C@@H](O)[C@H]2O)c1 [Nicotinamide Mononucleotide]
collision cross section (N2) ([M+H]+): 167.13 Å²

N[C@@H](CCOC(=O)CCC(=O)O)C(=O)O [O-Succinyl-L-homoserine]
collision cross section (N2) ([M+H]+): 147.46 Å² | collision cross section (N2) ([M+Na]+): 147.22 Å²

O=C(O)c1cc(=O)[nH]c(=O)[nH]1 [Orotic Acid]
collision cross section (N2) ([M+H]+): 138.85 Å² | collision cross section (N2) ([M+Na]+): 181.87 Å²

CCCCCCCC/C=C/CCCCCCCC(=O)OC[C@H](COP(=O)(O)OC[C@@H](O)CO)OC(=O)CCCCCCC/C=C/CCCCCCCC [PG(18:1/18:1)]
collision cross section (N2) ([M+H]+): 294.47 Å² and 294.81 Å² | collision cross section (N2) ([M+Na]+): 285.26 Å² and 289.31 Å²

CCCCCCCCCCCCCCCC(=O)O [Palmitic Acid]
collision cross section (N2) ([M+Na]+): 185.22 Å²
